Tested on: 186277-243-T-J2-PDC complex spheroids, viability
Assay: Anticancer human tumor 186277-243-T-J2-PDC patient-derived colon adenocarcinoma cell line growth inhibition [RAS]
Settings: for IC50: curve of first compound; for viability, T/C: stronger effect = lower value
Outline: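 Agents were tested in combination matrices in half-log decrements from a top concentration at or near clinical Cmax (10 microM if undetermined). Targets were multi-cell spheroids of tumour lines plus HUVEC and MSC stromal cells.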
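Also: spheroids exposed to compounds for 7 days before viability read.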

Compound: CC(Nc1ccc2c(c1)OCCn1cc(N3C(=O)OCC3C(F)F)nc1-2)C(N)=O (centres undefined) + CCn1c(-c2cccnc2C(C)OC)c2c3cc(ccc31)N1CCOC(CC(NC(=O)C(C(C)C)N(C)C(=O)C3(F)CCN(C(=O)C#CC(C)(C)N(C)C)CC3)C(=O)N3CCCC(N3)C(=O)OCC(C)(C)C2)C1
- IC50 (second compound 0.000949 µM): 5910 nM
- IC50 (second compound 0.003 µM): 5850 nM
- IC50 (second compound 0.00949 µM): 5630 nM
- IC50 (second compound 0.03 µM): 5690 nM
- IC50 (second compound 0.0949 µM): 2560 nM
- IC50 (second compound 0.3 µM): 317 nM
- viability, T/C (second compound 0.000949 µM, first compound 0.0316 µM): 108%
- viability, T/C (second compound 0.000949 µM, first compound 0.1 µM): 97.7%
- viability, T/C (second compound 0.000949 µM, first compound 0.316 µM): 70.5%
- viability, T/C (second compound 0.000949 µM, first compound 1 µM): 49.3%
- viability, T/C (second compound 0.000949 µM, first compound 3.16 µM): 96.2%
- viability, T/C (second compound 0.000949 µM, first compound 10 µM): 21.1%
- viability, T/C (second compound 0.003 µM, first compound 0.0316 µM): 95.1%
- viability, T/C (second compound 0.003 µM, first compound 0.1 µM): 90.1%
- viability, T/C (second compound 0.003 µM, first compound 0.316 µM): 66.2%
- viability, T/C (second compound 0.003 µM, first compound 1 µM): 55.3%
- viability, T/C (second compound 0.003 µM, first compound 3.16 µM): 105%
- viability, T/C (second compound 0.003 µM, first compound 10 µM): 21.8%
- viability, T/C (second compound 0.00949 µM, first compound 0.0316 µM): 78.8%
- viability, T/C (second compound 0.00949 µM, first compound 0.1 µM): 94%
- viability, T/C (second compound 0.00949 µM, first compound 0.316 µM): 74.3%
- viability, T/C (second compound 0.00949 µM, first compound 1 µM): 52.1%
- viability, T/C (second compound 0.00949 µM, first compound 3.16 µM): 102%
- viability, T/C (second compound 0.00949 µM, first compound 10 µM): 19.8%
- viability, T/C (second compound 0.03 µM, first compound 0.0316 µM): 105%
- viability, T/C (second compound 0.03 µM, first compound 0.1 µM): 91.7%
- viability, T/C (second compound 0.03 µM, first compound 0.316 µM): 65.3%
- viability, T/C (second compound 0.03 µM, first compound 1 µM): 48%
- viability, T/C (second compound 0.03 µM, first compound 3.16 µM): 108%
- viability, T/C (second compound 0.03 µM, first compound 10 µM): 17.6%
- viability, T/C (second compound 0.0949 µM, first compound 0.0316 µM): 102%
- viability, T/C (second compound 0.0949 µM, first compound 0.1 µM): 91.9%
- viability, T/C (second compound 0.0949 µM, first compound 0.316 µM): 59.2%
- viability, T/C (second compound 0.0949 µM, first compound 1 µM): 38.5%
- viability, T/C (second compound 0.0949 µM, first compound 3.16 µM): 97.8%
- viability, T/C (second compound 0.0949 µM, first compound 10 µM): 12.3%
- viability, T/C (second compound 0.3 µM, first compound 0.0316 µM): 96.1%
- viability, T/C (second compound 0.3 µM, first compound 0.1 µM): 66.4%
- viability, T/C (second compound 0.3 µM, first compound 0.316 µM): 47.1%
- viability, T/C (second compound 0.3 µM, first compound 1 µM): 25.4%
- viability, T/C (second compound 0.3 µM, first compound 3.16 µM): 86.4%
- viability, T/C (second compound 0.3 µM, first compound 10 µM): 7.8%

Compound: CC1(C)CCC(Nc2ncc(C(F)(F)F)c(-c3c[nH]c4c(P(C)(C)=O)c(C#N)ccc34)n2)CN1 (centres undefined) + C=CC(=O)N1CCN(c2nc(OCC3CCCN3C)nc3c(F)c(-c4nc(N)cc(C)c4C(F)(F)F)c(Cl)cc23)C(C)C1
- IC50 (second compound 0.00316 µM): > 300 nM
- IC50 (second compound 0.01 µM): > 300 nM
- IC50 (second compound 0.0316 µM): > 300 nM
- IC50 (second compound 0.1 µM): > 300 nM
- IC50 (second compound 0.316 µM): > 300 nM
- IC50 (second compound 1 µM): > 300 nM
- viability, T/C (second compound 0.00316 µM, first compound 0.000949 µM): 94.9%
- viability, T/C (second compound 0.00316 µM, first compound 0.003 µM): 98.4%
- viability, T/C (second compound 0.00316 µM, first compound 0.00949 µM): 143%
- viability, T/C (second compound 0.00316 µM, first compound 0.03 µM): 66.8%
- viability, T/C (second compound 0.00316 µM, first compound 0.0949 µM): 75.5%
- viability, T/C (second compound 0.00316 µM, first compound 0.3 µM): 56.9%
- viability, T/C (second compound 0.01 µM, first compound 0.000949 µM): 109%
- viability, T/C (second compound 0.01 µM, first compound 0.003 µM): 115%
- viability, T/C (second compound 0.01 µM, first compound 0.00949 µM): 146%
- viability, T/C (second compound 0.01 µM, first compound 0.03 µM): 58.6%
- viability, T/C (second compound 0.01 µM, first compound 0.0949 µM): 60.2%
- viability, T/C (second compound 0.01 µM, first compound 0.3 µM): 66.4%
- viability, T/C (second compound 0.0316 µM, first compound 0.000949 µM): 101%
- viability, T/C (second compound 0.0316 µM, first compound 0.003 µM): 118%
- viability, T/C (second compound 0.0316 µM, first compound 0.00949 µM): 135%
- viability, T/C (second compound 0.0316 µM, first compound 0.03 µM): 85.4%
- viability, T/C (second compound 0.0316 µM, first compound 0.0949 µM): 66.7%
- viability, T/C (second compound 0.0316 µM, first compound 0.3 µM): 65.9%
- viability, T/C (second compound 0.1 µM, first compound 0.000949 µM): 96.6%
- viability, T/C (second compound 0.1 µM, first compound 0.003 µM): 120%
- viability, T/C (second compound 0.1 µM, first compound 0.00949 µM): 120%
- viability, T/C (second compound 0.1 µM, first compound 0.03 µM): 71.4%
- viability, T/C (second compound 0.1 µM, first compound 0.0949 µM): 69.7%
- viability, T/C (second compound 0.1 µM, first compound 0.3 µM): 63.2%
- viability, T/C (second compound 0.316 µM, first compound 0.000949 µM): 103%
- viability, T/C (second compound 0.316 µM, first compound 0.003 µM): 96%
- viability, T/C (second compound 0.316 µM, first compound 0.00949 µM): 98.5%
- viability, T/C (second compound 0.316 µM, first compound 0.03 µM): 82.2%
- viability, T/C (second compound 0.316 µM, first compound 0.0949 µM): 65%
- viability, T/C (second compound 0.316 µM, first compound 0.3 µM): 62.1%
- viability, T/C (second compound 1 µM, first compound 0.000949 µM): 112%
- viability, T/C (second compound 1 µM, first compound 0.003 µM): 102%
- viability, T/C (second compound 1 µM, first compound 0.00949 µM): 114%
- viability, T/C (second compound 1 µM, first compound 0.03 µM): 70.8%
- viability, T/C (second compound 1 µM, first compound 0.0949 µM): 64.3%
- viability, T/C (second compound 1 µM, first compound 0.3 µM): 68.5%
